We go through seven molecules from US4740517A, “Antidiabetic spiro-3-heteroazolidines” (Sanwa Kagaku Kenyusho Co., Ltd., priority 1985, dated 1988).

In experiment [1] the target is T1, aldose reductase enzyme (Rattus norvegicus, UniProt P07943).
T1 construct: Using water-soluble extracts of rat lenses; from tissue; host or cells: rat lens, water-soluble extract
Briefly: inhibition of aldose reductase enzyme activity using water-soluble extracts of rat lenses (Kador and Sharpless procedure). Format: biochemical. As to conditions: for inhibition at 10 µM: 10^-5 M; for inhibition at 1 µM: 10^-6 M; for inhibition at 0.1 µM: 10^-7 M; for IC50: read-out: IC50 (concentration of inhibitor which gives 50% inhibition). The method, then: Using water-soluble extracts of rat lenses, the inhibitions of these compounds were determined.

For experiment [2], the system named is polyol increase in sciatic nerve of galactosemic rats. Briefly: reduction or inhibition of polyol (galactitol) increase in sciatic nerve of galactosemic rats. As to conditions: for Percent Inhibition (%) as compared to galactitol increase of the control animals: rats, 30% galactose diet, oral 10 mg/kg once a day for 8 days, sciatic nerve removed on 9th day. Format: in vivo, rat. The method, then:
Some spiro-3-heteroazolidine compounds according to the invention were tested to evaluate their ability on reduction or inhibition of polyol increase in sciatic nerve of galactosemic rats. To the rats, 30% galactose diet was fed and said compounds were orally administered at a dose of 10 mg/kg once a day for a period of 8 days. Control animals were received the galactose diet and were administered no such compound. One day after final administration (on 9th day from the first administration), sciatic nerves were removed for galactitol determination.

The mark [3] stands for this setting: read-out: Percent Inhibition (%) of aldose reductase enzyme activity.

One may read the inhibition as the relative decrease from the control value, in per cent. Take `O=C1NC(=O)C2(CC(C(=O)O)Oc3ccc(F)cc32)N1` (stereo not drawn) [Example 1, 6-Fluoro-2,3-dihydro-2',5'-dioxo-spiro[4H-1-benzopyran-4,4'-imidazolidine]-2-carboxylic acid]: in experiment [1] (setting [3]), the inhibition at 10 µM turned out to be 77%, the inhibition at 1 µM stood at 47% and the inhibition at 0.1 µM turned out to be 9%. For the same molecule, the IC50 in experiment [1] is 6000 nM. Besides, in experiment [2] (major versus minor diastereoisomer of Example 1), the “ability to reduce or inhibit polyol increase in sciatic nerve of galactosemic rats, potency of diastereoisomers” value is given as “greater than that of the minor diastereoisomer”. Further, the “Percent Inhibition (%) as compared to galactitol increase of the control animals” value in experiment [2] was determined as 36%.

Consider `NC(=O)C1CC2(NC(=O)NC2=O)c2cc(F)ccc2O1` (stereo not drawn) [Example 2, 6-Fluoro-2,3-dihydro-2',5'-dioxo-spiro[4H-1-benzopyran-4,4'-imidazolidine]-2-carboxamide], for which, in experiment [1] (setting [3]), the inhibition at 10 µM came to 93%, the inhibition at 1 µM was 85% and the inhibition at 0.1 µM turned out to be 15%. For the same molecule, the IC50 in experiment [1] was 400 nM. Besides, in experiment [2], the “Percent Inhibition (%) as compared to galactitol increase of the control animals” value worked out at 85% and the “inhibition of polyol accumulation in sciatic nerve (in words)” value is on record as “excellent”.

Regarding `CNC(=O)C1CC2(NC(=O)NC2=O)c2cc(F)ccc2O1` (stereo not drawn) [Example 3, 6-Fluoro-2,3-dihydro-N-methyl-2',5'-dioxo-spiro[4H-1-benzopyran-4,4'-imidazolidine]-2-carboxamide], in experiment [1] (setting [3]), the inhibition at 10 µM came to 71%, the inhibition at 1 µM was 78% and the inhibition at 0.1 µM stood at 26%. The IC50 in experiment [1] was determined as 500 nM. For the same molecule, the “Percent Inhibition (%) as compared to galactitol increase of the control animals” value in experiment [2] worked out at 31%.

In the case of `CN(C)C(=O)C1CC2(NC(=O)NC2=O)c2cc(F)ccc2O1` (stereo not drawn) [Example 5, 6-Fluoro-2,3-dihydro-N,N-dimethyl-2',5'-dioxo-spiro[4H-1-benzopyran-4,4'-imidazolidine]-2-carboxamide], in experiment [1] (setting [3]), the inhibition at 10 µM was found to be 61%, the inhibition at 1 µM is 29% and the inhibition at 0.1 µM came out at 10%. The IC50 in experiment [1] is 5000 nM. In experiment [2], the “Percent Inhibition (%) as compared to galactitol increase of the control animals” value is given as 70% and the “inhibition of polyol accumulation in sciatic nerve (in words)” value is listed as “excellent”.

`COc1ccc(NC(=O)C2CC3(NC(=O)NC3=O)c3cc(F)ccc3O2)cc1` (stereo not drawn) [Example 8, 6-Fluoro-2,3-dihydro-N-(4-methoxyphenyl)-2',5'-dioxo-spiro[4H-1-benzopyran-4,4'-imidazolidine]-2-carboxamide]: in experiment [1] (setting [3]), the inhibition at 10 µM turned out to be 81%, the inhibition at 1 µM is 81% and the inhibition at 0.1 µM is 65%. The inhibition at 0.01 µM in experiment [1] (10^-8 M, read-out: Percent Inhibition (%) of aldose reductase enzyme activity) turned out to be 14%. Besides, the IC50 in experiment [1] stood at 70 nM. Moreover, in experiment [2], the “Percent Inhibition (%) as compared to galactitol increase of the control animals” value is listed as 26%.

Turning to `O=C1NC(=O)C2(CC(CO)Oc3ccc(F)cc32)N1` (stereo not drawn) [Example 12, 6-Fluoro-2,3-dihydro-2-hydroxymethyl-spiro[4H-1-benzopyran-4,4'-imidazolidine]-2',5'-dione], in experiment [1] (setting [3]), the inhibition at 10 µM was determined as 85%, the inhibition at 1 µM is 28% and the inhibition at 0.1 µM worked out at 13%. Besides, in experiment [1], the IC50 stood at 4000 nM. Moreover, in experiment [2], the “Percent Inhibition (%) as compared to galactitol increase of the control animals” value is 40%.

Consider `O=C1NC(=O)C2(CC(CCl)Oc3ccc(F)cc32)N1` (stereo not drawn) [Example 13, 2-Chloromethyl-6-fluoro-2,3-dihydro-spiro[4H-1-benzopyran-4,4'-imidazolidine]-2',5'-dione], for which, in experiment [1] (setting [3]), the inhibition at 10 µM stood at 90%, the inhibition at 1 µM was found to be 51% and the inhibition at 0.1 µM turned out to be 3%. Further, the IC50 in experiment [1] is 1000 nM. For the same molecule, the “Percent Inhibition (%) as compared to galactitol increase of the control animals” value in experiment [2] came to 88%.
